Source: patent US5925618A, “Peptides useful as somatostatin antagonists” (American Cyanamid Company, priority 1998, dated 1999)
Square brackets hold non-standard residues; d marks the D form. Peptide text beside a SMILES is read from it.

Assays:
[1] = system: Male Sprague-Dawley rats; assay: Serum growth hormone levels in anaesthetized rats (peptide 1, BIM 23014C); type: in vivo, rat
Description: Evaluation in anaesthetized rats. Male Sprague-Dawley rats are anaesthetized with Sagatal and fitted so as to allow efficient intravenous treatment with control and test compounds as well as frequent blood sampling. Blood samples are tested for growth hormone (GH) levels by radioimmunoassay. Thirty minutes after the initiation of blood sampling, rats are given 5 μg, 25 μg or 50 μg of peptide 1.

[2] = system: Male Sprague-Dawley rats; assay: Spontaneous growth hormone secretory pulses in conscious rats; type: in vivo, rat; conditions: 300 μg/hr i.v. infusion for two hours
Description: Evaluation in conscious rats. Male Sprague-Dawley rats are fitted so as to allow efficient intravenous treatment with control and test compounds as well as frequent blood sampling. Blood samples are tested for growth hormone (GH) levels by radioimmunoassay. Blood samples are taken over a 12 hour period. At a 6 hour time point, peptide 1 is infused intravenously (300 μg/hr) into conscious, freely moving male rats for two hours. Control animals receive saline infusions over the same time period. […] It is known, SRIF is required for growth hormone pulsatility and that an SRIF antagonist abolishes said pulsatility (see Tannenbaum, G. S. and Ling, N., Endocrinology, 115, 1952-1957, 1984, incorporated herein by reference).

Compound: CC[C@@H](C)[C@@H](NC(=O)[C@@H](Cc1ccccc1)NC(=O)[C@@H](Cc1c[nH]cn1)NC(C)=O)C(=O)N[C@H](CCCNC(=N)N)C(=O)N[C@H](Cc1c[nH]c2ccccc12)C(=O)N[C@H](Cc1ccccc1)C(N)=O [Peptide 1, h-f-i-r-w-f] (Ac-[dH][dF][dI][dR][dW][dF]-NH2)
- SGH ([1]; 5 μg group, 90 min (time of 2nd peptide 1 dose, after BIM 23014C)): 2.4 ng/mL
- SGH ([1]; 5 μg peptide 1 at 30 min, sample 35 min): 17.5 ng/mL
- SGH ([1]; 5 μg peptide 1 at 30 min, sample 40 min): 14.9 ng/mL
- SGH ([1]; 5 μg peptide 1 at 30 min, sample 45 min): 15.7 ng/mL
- SGH ([1]; 5 μg peptide 1 group, i.v., 30 min (time of 1st peptide 1 dose)): 12.2 ng/mL
- serum GH levels after first dose ([1]; 5 μg, 25 μg or 50 μg i.v. at 30 min): significant increase in serum GH levels resulting from the highest dose
- SGH ([1]; 25 μg group, 90 min (time of 2nd peptide 1 dose, after BIM 23014C)): 5.1 ng/mL
- SGH ([1]; 25 μg peptide 1 at 30 min, sample 35 min): 18.4 ng/mL
- SGH ([1]; 25 μg peptide 1 at 30 min, sample 40 min): 17.5 ng/mL
- SGH ([1]; 25 μg peptide 1 at 30 min, sample 45 min): 14.0 ng/mL
- SGH ([1]; 25 μg peptide 1 group, i.v., 30 min (time of 1st peptide 1 dose)): 16.6 ng/mL
- SGH ([1]; 50 μg group, 90 min (time of 2nd peptide 1 dose, after BIM 23014C)): 1.9 ng/mL
- SGH ([1]; 50 μg peptide 1 at 30 min, sample 35 min): 50.2 ng/mL
- SGH ([1]; 50 μg peptide 1 at 30 min, sample 40 min): 23.4 ng/mL
- SGH ([1]; 50 μg peptide 1 at 30 min, sample 45 min): 15.5 ng/mL
- SGH ([1]; 50 μg peptide 1 group, i.v., 30 min (time of 1st peptide 1 dose)): 19.7 ng/mL
- SGH ([1]; 2nd dose 5 μg peptide 1 at 90 min after BIM 23014C, sample 95 min): 3.1 ng/mL
- SGH ([1]; 2nd dose 5 μg peptide 1 at 90 min after BIM 23014C, sample 100 min): 1.7 ng/mL
- SGH ([1]; 2nd dose 5 μg peptide 1 at 90 min after BIM 23014C, sample 105 min): 1.7 ng/mL
- SGH ([1]; 2nd dose 5 μg peptide 1 at 90 min after BIM 23014C, sample 135 min): 1.1 ng/mL
- SGH ([1]; 2nd dose 25 μg peptide 1 at 90 min after BIM 23014C, sample 95 min): 11.4 ng/mL
- SGH ([1]; 2nd dose 25 μg peptide 1 at 90 min after BIM 23014C, sample 100 min): 10.5 ng/mL
- SGH ([1]; 2nd dose 25 μg peptide 1 at 90 min after BIM 23014C, sample 105 min): 7.9 ng/mL
- SGH ([1]; 2nd dose 25 μg peptide 1 at 90 min after BIM 23014C, sample 135 min): 5.2 ng/mL
- SGH ([1]; 2nd dose 50 μg peptide 1 at 90 min after BIM 23014C, sample 95 min): 67.3 ng/mL
- SGH ([1]; 2nd dose 50 μg peptide 1 at 90 min after BIM 23014C, sample 100 min): 31.8 ng/mL
- SGH ([1]; 2nd dose 50 μg peptide 1 at 90 min after BIM 23014C, sample 105 min): 10.5 ng/mL
- SGH ([1]; 2nd dose 50 μg peptide 1 at 90 min after BIM 23014C, sample 135 min): 2.6 ng/mL
- serum GH levels after second dose ([1]; second dose 5 μg, 25 μg or 50 μg after BIM 23014C): even greater increase in serum GH levels from the highest dose
- spontaneous growth hormone secretory pulses [2]: abolition of these pulses
